Results taken from PubChem BioAssay (NCI).
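48-hour exposure; five concentrations; linearly interpolated endpoints. GI50: concentration for 50% inhibition of growth. Definition used: TGI = concentration required for complete inhibition of growth.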

What was measured:
Assay in all cases: inhibition of tumour cell growth, NCI panel, 48 h
[1] = tested on: HL-60(TB) leukemia
[2] = tested on: HOP-62 NSCLC
[3] = tested on: KM12 colon
[4] = tested on: MALME-3M melanoma
[5] = tested on: MDA-MB-231 breast
[6] = tested on: NCI-H522 lung
[7] = tested on: SF-295 CNS
[8] = tested on: SK-MEL-2 melanoma
[9] = tested on: SK-MEL-5 melanoma
[10] = tested on: SK-OV-3 ovarian

| Compound | GI50 [1] | TGI [1] | GI50 [2] | TGI [2] | GI50 [3] | TGI [3] | GI50 [4] | TGI [4] | GI50 [5] | TGI [5] | GI50 [6] | TGI [6] | GI50 [7] | TGI [7] | GI50 [8] | TGI [8] | GI50 [9] | TGI [9] | GI50 [10] | TGI [10] |
| --- | --- | --- | --- | --- | --- | --- | --- | --- | --- | --- | --- | --- | --- | --- | --- | --- | --- | --- | --- | --- |
| COc1ccccc1/C=C1\COc2ccc(O)c(O)c2C1=O | 0.407 µM | 4.49 µM | 3.1 µM | 9.54 µM | 1.73 µM | 3.89 µM | 1.38 µM | 3.72 µM | 2.24 µM | 10.2 µM | 0.214 µM | 0.656 µM | 4.49 µM | > 100 µM | 2.72 µM | 8.67 µM | 1.56 µM | 3.18 µM | 4.68 µM | > 100 µM |
| O=C1CCC/C=C\C[C@H]2C=C(Cl)C(=O)/C2=C/C[C@H](CCCCC(F)(F)F)OC(=O)CCC/C=C\C[C@H]2C=C(Cl)C(=O)/C2=C/C[C@H](CCCCC(F)(F)F)O1 | 0.362 µM | 3.6 µM | 0.274 µM | 1.46 µM | 0.291 µM | 1.38 µM | 0.21 µM | 0.694 µM | 0.194 µM | 0.504 µM | 0.166 µM | 0.384 µM | 0.292 µM | 1.19 µM | 0.329 µM | 2.11 µM | 0.412 µM | 1.37 µM | 1.72 µM | 5.17 µM |
| COc1ccc(CN2CCc3c(Cl)nc(N)nc3C2=O)c(OC)c1 | 1.67 µM | 5.52 µM | 25.7 µM | 63.9 µM | 14.4 µM | 28.4 µM | 15.8 µM | 44.2 µM | 14.8 µM | 30.3 µM | 12.7 µM | 30.9 µM | 40.3 µM | > 100 µM | 16.6 µM | 34.8 µM | 13.5 µM | 26.7 µM | 24.2 µM | 88 µM |
| CC1CN(CCO)CC(C)O1 (stereo not given) | – | > 100 µM | – | > 100 µM | – | > 100 µM | – | > 100 µM | – | > 100 µM | – | > 100 µM | – | > 100 µM | – | > 100 µM | – | > 100 µM | – | > 100 µM |
| COc1ccc(/C=C2/SC(=Nc3c(C)nn(-c4ccccc4)c3N)NC2=O)cc1 | 2.9 µM | 10.7 µM | 4.12 µM | 39.9 µM | 3.5 µM | 13.6 µM | 3.77 µM | 22.1 µM | 9.5 µM | 69.7 µM | 3.1 µM | 16.4 µM | 2.76 µM | 13.2 µM | 3.99 µM | 17.2 µM | 3.23 µM | 10.5 µM | 3.65 µM | 25.3 µM |
| COC1CC(OC2OC(CO)C(O)C(O)C2O)/C(=C\C#N)C(O)C1OC (stereo not given) | – | > 100 µM | – | > 100 µM | – | > 100 µM | – | > 100 µM | – | > 100 µM | – | > 100 µM | – | > 100 µM | – | > 100 µM | – | > 100 µM | – | > 100 µM |
| O=C(CCCCCCc1nc2ccc(Br)cc2[nH]1)NO | 0.461 µM | > 100 µM | 0.632 µM | 14.6 µM | 0.377 µM | 4.18 µM | 0.203 µM | 0.813 µM | 0.824 µM | 25 µM | 0.134 µM | 0.859 µM | 0.471 µM | 2.84 µM | 0.279 µM | 3.87 µM | 0.328 µM | 1.38 µM | 0.628 µM | 3.52 µM |
